# Reference: ChEMBL document CHEMBL5247575 (J Med Chem, 2018)
# How the values were obtained:
# Assay type in all cases: functional
# [1] = test system: Klebsiella pneumoniae; experiment: Antibacterial activity against Klebsiella pneumoniae 1084/1957 producing KPC-3 by broth microdilution method
# [2] = test system: Acinetobacter baumannii; experiment: Synergistic antibacterial activity against Acinetobacter baumannii NCTC 13303 producing OXA-26/51 infected in sc dosed Swiss albino mouse assessed as colistin MIC at 8 ug/ml administered […] post infection and measured upto 7 days; details: NCTC 13303, 168 h, dose 8 µg/ml, time <= 7 day
# [3] = test system: Acinetobacter baumannii; experiment: Synergistic antibacterial activity against Acinetobacter baumannii NCTC 13303 producing OXA-26/51 infected in sc dosed Swiss albino mouse assessed as cefepime MIC at 8 ug/ml administered 1 hr post infection and measured upto 7 days; details: NCTC 13303, 168 h, dose 8 µg/ml, time <= 7 day
smiles,measurement,setting,value
O=C(NNC(=O)[C@@H]1CC[C@@H]2CN1C(=O)N2OS(=O)(=O)O)[C@@H]1CCCNC1 [ZIDEBACTAM],MIC,[1],> 16 mg/L
N#C[C@@H]1CC[C@@H]2CN1C(=O)N2OS(=O)(=O)[O-].[Na+],MIC,[2],0.5 mg/L
same,MIC,[3],64 mg/L
